Common to all, as to test: kinome screen (33PanQinase)
Holding throughout (assay type): biochemical

In one experiment the target is T1, PRKG1 (Homo sapiens, UniProt Q13976).
T1 construct: purchased Reaction Biology Europe GmbH (formerly ProQinase)
T1 sequence (Q13976 1-671): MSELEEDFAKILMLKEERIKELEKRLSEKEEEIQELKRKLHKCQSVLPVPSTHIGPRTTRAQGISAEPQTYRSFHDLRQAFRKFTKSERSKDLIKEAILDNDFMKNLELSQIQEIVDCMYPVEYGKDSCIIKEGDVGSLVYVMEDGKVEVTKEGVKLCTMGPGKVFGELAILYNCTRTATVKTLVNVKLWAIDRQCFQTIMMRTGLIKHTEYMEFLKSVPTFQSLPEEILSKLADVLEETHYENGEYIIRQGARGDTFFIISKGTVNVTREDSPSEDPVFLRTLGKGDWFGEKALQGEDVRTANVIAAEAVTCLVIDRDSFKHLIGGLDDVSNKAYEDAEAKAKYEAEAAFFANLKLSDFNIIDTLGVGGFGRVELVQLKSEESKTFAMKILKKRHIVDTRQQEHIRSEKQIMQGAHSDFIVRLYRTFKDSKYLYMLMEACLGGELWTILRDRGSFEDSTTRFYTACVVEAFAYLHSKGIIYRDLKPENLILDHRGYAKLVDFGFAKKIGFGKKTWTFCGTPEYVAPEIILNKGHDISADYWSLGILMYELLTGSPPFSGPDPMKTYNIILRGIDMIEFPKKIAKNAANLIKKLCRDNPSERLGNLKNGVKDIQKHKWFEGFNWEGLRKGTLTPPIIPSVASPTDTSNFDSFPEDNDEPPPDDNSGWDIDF
On the procedure:
(§1) The Kinome Screening was performed by Reaction Biology Europe GmbH (http://reactionbiology.com; Freiburg i. Br., Germany).

Another experiment has as its target T2, PYK2 (Homo sapiens, UniProt Q14289).
T2 construct: purchased Reaction Biology Europe GmbH (formerly ProQinase)
The method, then:
as §1

For a further experiment, the target named is T3, NEK9 (Homo sapiens, UniProt Q8TD19).
T3 construct: purchased Reaction Biology Europe GmbH (formerly ProQinase)
T3 sequence (Q8TD19 1-979): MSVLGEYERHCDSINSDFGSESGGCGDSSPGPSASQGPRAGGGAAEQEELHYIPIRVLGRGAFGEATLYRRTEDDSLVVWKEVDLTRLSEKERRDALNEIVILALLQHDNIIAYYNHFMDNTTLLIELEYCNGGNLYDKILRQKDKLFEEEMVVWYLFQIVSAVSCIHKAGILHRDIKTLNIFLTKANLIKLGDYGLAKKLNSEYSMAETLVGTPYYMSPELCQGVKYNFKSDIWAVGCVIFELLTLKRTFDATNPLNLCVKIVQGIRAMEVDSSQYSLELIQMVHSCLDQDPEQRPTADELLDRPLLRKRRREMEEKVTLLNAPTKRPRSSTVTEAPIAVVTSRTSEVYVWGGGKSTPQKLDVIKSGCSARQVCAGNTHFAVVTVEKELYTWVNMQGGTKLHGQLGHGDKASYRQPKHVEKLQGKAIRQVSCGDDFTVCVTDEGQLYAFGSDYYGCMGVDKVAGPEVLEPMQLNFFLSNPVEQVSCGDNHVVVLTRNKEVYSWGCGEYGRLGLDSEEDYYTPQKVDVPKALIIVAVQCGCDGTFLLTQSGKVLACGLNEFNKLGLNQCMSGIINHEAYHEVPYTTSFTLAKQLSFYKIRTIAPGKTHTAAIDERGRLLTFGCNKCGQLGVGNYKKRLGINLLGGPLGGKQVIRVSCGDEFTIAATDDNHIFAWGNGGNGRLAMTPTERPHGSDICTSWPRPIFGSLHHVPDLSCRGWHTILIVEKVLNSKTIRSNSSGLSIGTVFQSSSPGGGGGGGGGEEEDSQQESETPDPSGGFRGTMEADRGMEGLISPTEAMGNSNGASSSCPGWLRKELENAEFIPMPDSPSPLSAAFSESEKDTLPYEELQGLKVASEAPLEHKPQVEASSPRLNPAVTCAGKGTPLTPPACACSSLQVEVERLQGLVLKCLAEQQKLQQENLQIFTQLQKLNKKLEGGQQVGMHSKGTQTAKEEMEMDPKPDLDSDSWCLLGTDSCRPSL
On the procedure: as §1

Another experiment has as its target T4, PAK2 (Homo sapiens, UniProt Q13177).
T4 construct: purchased Reaction Biology Europe GmbH (formerly ProQinase)
The method, then: as §1

In another experiment the target is T5, BRSK2 (Homo sapiens, UniProt Q8IWQ3).
T5 construct: purchased Reaction Biology Europe GmbH (formerly ProQinase)
T5 sequence (Q8IWQ3 1-736): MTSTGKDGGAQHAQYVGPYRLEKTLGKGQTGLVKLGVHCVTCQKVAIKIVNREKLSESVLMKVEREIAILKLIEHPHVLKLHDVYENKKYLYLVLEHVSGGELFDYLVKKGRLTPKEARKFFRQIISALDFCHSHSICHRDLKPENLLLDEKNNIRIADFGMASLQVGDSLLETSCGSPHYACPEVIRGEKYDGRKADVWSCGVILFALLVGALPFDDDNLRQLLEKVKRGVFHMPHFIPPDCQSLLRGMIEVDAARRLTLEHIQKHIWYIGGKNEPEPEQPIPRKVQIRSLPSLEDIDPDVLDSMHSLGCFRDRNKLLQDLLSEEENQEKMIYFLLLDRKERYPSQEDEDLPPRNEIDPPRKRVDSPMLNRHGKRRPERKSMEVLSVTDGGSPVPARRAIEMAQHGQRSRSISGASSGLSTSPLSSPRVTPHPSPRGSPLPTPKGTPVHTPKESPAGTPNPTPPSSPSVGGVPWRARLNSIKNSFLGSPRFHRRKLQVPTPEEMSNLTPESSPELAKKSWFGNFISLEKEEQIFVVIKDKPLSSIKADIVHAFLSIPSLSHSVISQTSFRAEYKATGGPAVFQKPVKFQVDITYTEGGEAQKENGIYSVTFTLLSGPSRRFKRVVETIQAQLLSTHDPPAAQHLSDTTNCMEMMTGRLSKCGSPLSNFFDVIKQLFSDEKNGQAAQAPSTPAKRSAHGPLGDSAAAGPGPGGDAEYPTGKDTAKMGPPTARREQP
The method, then:
as §1

We go through two compounds from article PMC11167047 (Cell Death Discovery, 2024).

T2 sequence (Q14289 whole entry): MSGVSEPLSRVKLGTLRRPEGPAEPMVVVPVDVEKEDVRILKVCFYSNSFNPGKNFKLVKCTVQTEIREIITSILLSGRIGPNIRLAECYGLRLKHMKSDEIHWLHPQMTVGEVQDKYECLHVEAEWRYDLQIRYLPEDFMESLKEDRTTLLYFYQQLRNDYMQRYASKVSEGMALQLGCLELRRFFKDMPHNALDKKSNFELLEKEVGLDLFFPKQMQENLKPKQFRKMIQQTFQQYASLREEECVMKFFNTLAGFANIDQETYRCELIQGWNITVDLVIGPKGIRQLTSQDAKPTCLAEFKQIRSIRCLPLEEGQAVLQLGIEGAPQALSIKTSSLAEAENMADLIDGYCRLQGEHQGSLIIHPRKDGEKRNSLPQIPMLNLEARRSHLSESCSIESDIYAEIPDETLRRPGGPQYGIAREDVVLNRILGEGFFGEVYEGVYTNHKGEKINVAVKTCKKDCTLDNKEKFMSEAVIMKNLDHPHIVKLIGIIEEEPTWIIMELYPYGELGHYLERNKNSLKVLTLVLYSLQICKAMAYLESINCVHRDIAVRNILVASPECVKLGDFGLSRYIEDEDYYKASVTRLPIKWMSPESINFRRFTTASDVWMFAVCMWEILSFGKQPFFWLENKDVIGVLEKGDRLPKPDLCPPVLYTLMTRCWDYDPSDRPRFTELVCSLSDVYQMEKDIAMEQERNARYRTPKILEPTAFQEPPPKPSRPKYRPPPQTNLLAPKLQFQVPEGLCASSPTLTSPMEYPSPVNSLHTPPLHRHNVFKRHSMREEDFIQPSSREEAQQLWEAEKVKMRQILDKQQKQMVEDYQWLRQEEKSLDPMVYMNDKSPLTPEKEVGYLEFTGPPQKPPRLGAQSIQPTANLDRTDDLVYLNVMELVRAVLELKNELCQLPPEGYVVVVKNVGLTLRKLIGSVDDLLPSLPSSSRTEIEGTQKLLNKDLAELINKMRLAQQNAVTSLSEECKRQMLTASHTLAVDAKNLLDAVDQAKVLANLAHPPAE
T4 sequence (Q13177 whole entry): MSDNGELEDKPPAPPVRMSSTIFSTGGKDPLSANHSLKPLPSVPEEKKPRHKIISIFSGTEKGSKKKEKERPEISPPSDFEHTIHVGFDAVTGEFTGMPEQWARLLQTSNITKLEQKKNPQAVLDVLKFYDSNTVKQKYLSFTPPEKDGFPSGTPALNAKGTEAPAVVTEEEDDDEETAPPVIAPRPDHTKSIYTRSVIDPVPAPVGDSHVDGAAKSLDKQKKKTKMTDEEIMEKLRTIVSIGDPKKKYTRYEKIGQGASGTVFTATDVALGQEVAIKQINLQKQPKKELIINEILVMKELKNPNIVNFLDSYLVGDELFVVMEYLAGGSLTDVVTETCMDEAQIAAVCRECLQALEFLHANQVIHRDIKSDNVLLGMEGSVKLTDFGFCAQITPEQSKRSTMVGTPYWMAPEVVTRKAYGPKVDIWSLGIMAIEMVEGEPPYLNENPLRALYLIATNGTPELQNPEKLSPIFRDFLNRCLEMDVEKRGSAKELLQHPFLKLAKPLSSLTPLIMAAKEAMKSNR

For `c1ccc(CNc2cc(-c3c[nH]c4ncccc34)ccn2)cc1` [meriolin 36], the residual kinase activity was 6 % of control at PRKG1 (0.3 µM); 1 % of control at PRKG1 (3 µM); 73 % of control on PYK2 (0.3 µM); 24 % of control on PYK2 (3 µM); 88 % of control on NEK9 (0.3 µM); 67 % of control at NEK9 (3 µM). Besides, the residual kinase activity at PAK2 (0.3 µM) is on record as 71 % of control; on PAK2 (3 µM) it was 17 % of control; on BRSK2 (0.3 µM), 112 % of control; at BRSK2 (3 µM) it was 61 % of control.

Consider `COc1ccnc2[nH]cc(-c3cc(N)nc(N)c3)c12` [meriolin 16], for which the residual kinase activity on PRKG1 (0.03 µM) is 75 % of control; on PRKG1 (0.3 µM) it was 30 % of control; at PYK2 (0.03 µM), 117 % of control; at PYK2 (0.3 µM), 102 % of control; at NEK9 (0.03 µM) it was 89 % of control; at NEK9 (0.3 µM), 87 % of control. Moreover, the residual kinase activity is 92 % of control at PAK2 (0.03 µM), 93 % of control on PAK2 (0.3 µM), 111 % of control at BRSK2 (0.03 µM) and 92 % of control at BRSK2 (0.3 µM).
